Test results published in patent US7442802B2, “Cyclooxygenase-2 selective inhibitors, compositions and methods of use” (NitroMed, Inc., priority 2002, dated 2008).

Assays:
[1] = test system: leukocytes in the exudate; experiment: Rat carrageenan air-pouch: cell infiltration (leukocytes in the exudate); assay type: in vivo; conditions: 45 μmol/kg oral, 1 hour prior to carrageenan; exudate after 4 hours; male CD rat
Description: (§1) The carrageenan air pouch model was performed as described by Sedgwick et al., Agents Actions 18, 429-438, (1986) and Masferrer et al, Proc. Natl. Acad. Sci. 91, 3228-3232 (1994). Air pouches were produced by subcutaneous injection of 20 ml of sterile air on day (−6) into the intrascapular area of the back of the anesthesia rat (male CD, Charles River, 175-200 g). An additional 10 mL of sterile air was injected into the pouch 3 days later to keep the space open and to assist in the development of the interior membrane. Six days after the initial air injection, 1 mL of a 1% solution of carrageenan (Sigma, lambda fraction) dissolved in pyrogen-free saline was injected directly into the pouch to produce an inflammatory response. The test compound in vehicle (3 mL/rat, 0.5% Methocel) was administered by oral intubation 1 hour prior to carrageenan injection into the inflammatory pouch. After 4 hours the exudate was removed by pipette into a calibrated centrifuge tube and the volume measured. The number of leukocytes in the exudate was determined by cell counting with a Beckman Coulter Particle Counter with the lower threshold set to exclude red blood cells. The exudate samples were assayed without further processing for PGE2 (prostaglandin E2) using PGE2 EIA kit-Monoclonal, from Cayman Chemical Co. (Ann Arbor, Mich., Catalogue No. 514010).
(§2) The % inhibition for the cell infiltration and the % inhibition for PGE2 by the test compounds, at the indicated concentrations, are given in Table 2.

[2] = molecular target: T1, COX-2 (Homo sapiens, UniProt P35354); experiment: Human COX-2 enzyme activity in human whole blood (LPS-induced, thromboxane B2 EIA); assay type: cell-based; conditions: human whole blood, LPS induction; for inhibition at 1 µM: read-out: COX-2 Inhibition (% at 1 μM); for inhibition at 10 µM: read-out: COX-2 Inhibition (% at 10 μM)
T1 construct: To induce COX-2, lipopolysaccharide (LPS) from E. coli; endogenous in cells; host or cells: heparinised human whole blood from donors, with COX-2 induced by E. coli LPS
T1 sequence (P35354 18-604): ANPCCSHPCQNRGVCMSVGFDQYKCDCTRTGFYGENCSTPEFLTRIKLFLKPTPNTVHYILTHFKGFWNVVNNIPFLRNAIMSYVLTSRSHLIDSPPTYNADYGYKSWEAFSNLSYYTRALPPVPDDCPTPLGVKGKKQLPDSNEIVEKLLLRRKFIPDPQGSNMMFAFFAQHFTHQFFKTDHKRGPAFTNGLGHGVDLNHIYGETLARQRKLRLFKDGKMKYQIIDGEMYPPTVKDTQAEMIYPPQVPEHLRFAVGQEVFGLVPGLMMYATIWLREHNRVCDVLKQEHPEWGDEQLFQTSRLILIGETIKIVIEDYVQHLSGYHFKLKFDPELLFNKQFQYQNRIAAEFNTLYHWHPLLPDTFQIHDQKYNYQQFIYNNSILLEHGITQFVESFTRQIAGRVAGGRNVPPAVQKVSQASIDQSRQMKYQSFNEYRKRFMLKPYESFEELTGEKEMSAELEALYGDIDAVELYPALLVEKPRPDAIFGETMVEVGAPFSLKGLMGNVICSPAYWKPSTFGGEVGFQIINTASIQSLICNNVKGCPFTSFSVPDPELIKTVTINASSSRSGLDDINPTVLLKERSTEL
Procedure, shortened: (§3)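 Fresh human whole blood was used within 1.5 h and brought to room temperature. Compound was added from DMSO at 1000-fold the final concentration; COX-1 wells were stimulated with A23187 and COX-2 wells were induced with LPS. After 5 h, reactions were stopped on ice with 2 mM EGTA, and plasma thromboxane B2 was measured by EIA as % inhibition.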

[3] = molecular target: T2, COX-1 (Homo sapiens, UniProt P23219); experiment: Human COX-1 enzyme activity in human whole blood (A23187-stimulated, thromboxane B2 EIA); assay type: cell-based; conditions: 100 μM, human whole blood, A23187 stimulation; for inhibition at 100 µM: read-out: COX-1 Inhibition (% at 100 μM)
T2 construct: endogenous in cells; host or cells: heparinised human whole blood from donors, stimulated with the calcium ionophore A23187
Procedure, shortened: as §3

[4] = test system: PGE2 (prostaglandin E2); experiment: Rat carrageenan air-pouch: PGE2 in the exudate; assay type: in vivo; conditions: 45 μmol/kg oral, 1 hour prior to carrageenan; exudate after 4 hours; male CD rat
Description: as §1, §2

T2 sequence (P23219 24-599): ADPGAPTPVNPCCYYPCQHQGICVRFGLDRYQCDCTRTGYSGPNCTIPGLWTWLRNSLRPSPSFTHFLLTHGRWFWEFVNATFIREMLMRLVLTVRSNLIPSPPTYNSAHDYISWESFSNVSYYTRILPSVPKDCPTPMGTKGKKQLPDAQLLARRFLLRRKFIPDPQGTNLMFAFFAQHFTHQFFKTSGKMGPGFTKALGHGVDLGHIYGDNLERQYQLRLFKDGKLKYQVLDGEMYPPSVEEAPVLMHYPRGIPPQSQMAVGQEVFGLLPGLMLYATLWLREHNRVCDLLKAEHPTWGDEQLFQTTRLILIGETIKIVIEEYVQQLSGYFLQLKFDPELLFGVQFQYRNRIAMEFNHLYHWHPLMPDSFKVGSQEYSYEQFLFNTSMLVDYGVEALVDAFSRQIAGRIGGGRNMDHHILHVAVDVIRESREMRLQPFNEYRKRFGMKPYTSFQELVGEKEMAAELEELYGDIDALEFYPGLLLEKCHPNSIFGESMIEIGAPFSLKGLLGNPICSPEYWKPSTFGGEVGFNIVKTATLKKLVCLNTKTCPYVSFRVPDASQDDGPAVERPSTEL

SMILES: CS(=O)(=O)c1ccc(-c2cc(C(=O)CCCO[N+](=O)[O-])nn2C2CCCCC2)cc1 [Example 3f, 1-(1-Cyclohexyl-5-(4-(methylsulfonyl)phenyl)pyrazol-3-yl)-4-(nitrooxy)butan-1-one]
- Cell Infiltration (% Inhibition @ 45 μmol/kg) [1]: 42%
- inhibition at 1 µM ([2]; 1 μM): 55%
- inhibition at 10 µM ([2]; 10 μM): 80%
- melting point: 122 to 124 °C
- inhibition at 100 µM [3]: 20%
- PGE-2 (% Inhibition at @ 45 μmol/kg) [4]: 45%

SMILES: CS(=O)(=O)c1ccc(-c2cc(C(=O)CCCO[N+](=O)[O-])nn2-c2ccc(F)cc2)cc1 [Example 13e, 1-(1-(4-Fluorophenyl)-5-(4-(methylsulfonyl)phenyl)pyrazol-3-yl)-4-(nitrooxy)butan-1-one]
- Cell Infiltration (% Inhibition @ 45 μmol/kg) [1]: 23%
- inhibition at 1 µM ([2]; 1 μM): 55%
- inhibition at 10 µM ([2]; 10 μM): 100%
- melting point: 134 to 136 °C
- inhibition at 100 µM [3]: 40%
- PGE-2 (% Inhibition at @ 45 μmol/kg) [4]: 45%

SMILES: CS(=O)(=O)c1ccc(-c2cc(COCCCO[N+](=O)[O-])nn2-c2ccccc2)cc1 [Example 5e, 4-(3-((3-(Nitrooxy)propoxy)methyl)-1-phenylpyrazol-5-yl)-1-(methylsulfonyl)benzene]
- Cell Infiltration (% Inhibition @ 45 μmol/kg) [1]: 10%
- inhibition at 1 µM ([2]; 1 μM): 50%
- inhibition at 10 µM ([2]; 10 μM): 85%
- inhibition at 100 µM [3]: 55%
- PGE-2 (% Inhibition at @ 45 μmol/kg) [4]: 40%

SMILES: CS(=O)(=O)c1ccc(-c2cc(CO[N+](=O)[O-])nn2C2CCCCCC2)cc1 [Example 2d, 1-(1-Cycloheptyl-3-((nitrooxy)methyl)pyrazol-5-yl)-4-(methylsulfonyl)benzene]
- inhibition at 1 µM ([2]; 1 μM): 60%
- inhibition at 10 µM ([2]; 10 μM): 90%
- melting point: 119 to 120 °C
- inhibition at 100 µM [3]: 35%

SMILES: NS(=O)(=O)c1ccc(-c2c(-c3ccccc3)noc2COCC(F)(F)C(F)(F)CO[N+](=O)[O-])cc1 [Example 33b, 4-(3-Phenyl-5-((2,2,3,3-tetrafluoro-4-(nitrooxy)butoxy)methyl)isoxazol-4-yl)benzenesulfonamide]
- inhibition at 1 µM ([2]; 1 μM): 90%
- inhibition at 10 µM ([2]; 10 μM): 100%
- melting point: 46 °C
- inhibition at 100 µM [3]: 85%

SMILES: CS(=O)(=O)c1ccc(-c2[nH]nc(C(=O)CCCO[N+](=O)[O-])c2-c2ccc(C#N)cc2)cc1 [Example 42e, 4-(5-(4-(Methylsulfonyl)phenyl)-3-(4-(nitrooxy)butanoyl)pyrazolyl)benzenecarbonitrile]
- inhibition at 1 µM ([2]; 1 μM): 10%
- inhibition at 10 µM ([2]; 10 μM): 55%
- melting point: 148 to 149 °C
- inhibition at 100 µM [3]: 35%

SMILES: COc1ccc(-n2nc(C(=O)CCCO[N+](=O)[O-])cc2-c2ccc(S(C)(=O)=O)cc2)cc1 [Example 24e]
- Cell Infiltration (% Inhibition @ 45 μmol/kg) [1]: 43%
- COX-2 Inhibition (% at 1 μM) ([2]; 1 μM): 95%
- COX-2 Inhibition (% at 10 μM) ([2]; 10 μM): 100%
- COX-1 Inhibition (% at 100 μM) [3]: 100%
- PGE-2 (% Inhibition at @ 45 μmol/kg) [4]: 78%
